Values of other authors as cited in patent publication US20060240450A1, “Genetic analysis for stratification of cancer risk” (priority 2001, published 2006).
Structures can show the parent of a compound that is named as a salt.

System: uterus and breast tissue
Conditions: preliminary clinical data (through 30 months)

SMILES: O=C(c1ccc(OCCN2CCCCC2)cc1)c1c(-c2ccc(O)cc2)sc2cc(O)ccc12 [Raloxifene HCl, methanone, [6-hydroxy-2-(4-hydroxyphenyl)benzo[b]thien-3-yl]-[4-[2-(1-piperidinyl)ethoxy]phenyl]-hydrochloride]
- estrogen-like effects on uterus and breast tissue: lacks estrogen-like effects
